Experimental data as given in patent publication US10227323B2, “Glucosylceramide synthase inhibitors for the treatment of diseases” (BIOMARIN PHARMACEUTICAL INC., priority 2013, dated 2019).

Biological target: T1, GCS (Canis lupus familiaris, UniProt A0A8I3MXG6)
T1 sequence (A0A8I3MXG6 1-394): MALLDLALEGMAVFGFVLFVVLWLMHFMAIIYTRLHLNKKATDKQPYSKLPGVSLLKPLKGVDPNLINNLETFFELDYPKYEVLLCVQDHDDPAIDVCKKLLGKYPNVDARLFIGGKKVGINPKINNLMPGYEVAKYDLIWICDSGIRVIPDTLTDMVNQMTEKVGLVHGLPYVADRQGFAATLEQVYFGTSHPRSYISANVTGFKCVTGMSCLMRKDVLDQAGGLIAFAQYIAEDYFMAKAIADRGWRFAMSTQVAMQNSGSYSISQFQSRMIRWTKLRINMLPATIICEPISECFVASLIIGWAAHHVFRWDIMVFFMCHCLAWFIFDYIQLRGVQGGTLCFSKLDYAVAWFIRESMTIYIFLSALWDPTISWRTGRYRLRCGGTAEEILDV
Assay: Assay 1: GCS Enzymatic Assay (MDCK cell lysate, C6-NBD-Ceramide, LC/MS)
Format: biochemical, canine
Conditions: Table 1; MDCK cell lysate; read-out: IC50 (nM) generated from Assay 1
Procedure, shortened: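 LC/MS/MS measurement of glucosylceramide and NBD-ceramide after a 1 h, 37 °C reaction with 100 μM UDP-glucose and 10 μM C6-NBD-ceramide gave IC50s or percent inhibition.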

With O=C(N[C@H](CN1CCCC1)[C@H](O)c1ccc2c(c1)OCCO2)C(F)(F)c1cc2ccccc2o1 [Compound 23, 2-(benzofuran-2-yl)-N-((1R,2R)-1-(2,3-dihydrobenzo[b][1,4]dioxin-6-yl)-1-hydroxy-3-(pyrrolidin-1-yl)propan-2-yl)-2,2-difluoroacetamide] as the molecule, how does the IC50 read?
Its IC50 is < 50 nM.

Same assay, conditions: Table 2; data marked by *

O=C(N[C@H](CN1CCCC1)[C@H](O)c1ccc(OC2CC2)c(Cl)c1)C(F)(F)c1csc(-c2ccc(F)cc2)n1 [Compound 213, N-((1R,2R)-1-(3-chloro-4-cyclopropoxyphenyl)-1-hydroxy-3-(pyrrolidin-1-yl)propan-2-yl)-2,2-difluoro-2-(2-(4-fluorophenyl)thiazol-4-yl)acetamide] was tested. Which “% inhibition generated from Assay 1” value did it give?
The value was “B* (the compound had a % inhibition of greater than or equal to about 3% but less than about 50%)”.

Cn1ncc2ccc(C(=O)C(=O)N[C@H](CN3CCCC3)[C@H](O)c3cc(F)c4c(c3)OCCO4)cc21 [Compound 245, N-((1R,2R)-1-(8-fluoro-2,3-dihydrobenzo[b][1,4]dioxin-6-yl)-1-hydroxy-3-(pyrrolidin-1-yl)propan-2-yl)-2-(1-methyl-1H-indazol-6-yl)-2-oxoacetamide] was tested. Which “% inhibition generated from Assay 1” value did it give?
The value was “A* (the compound had a % inhibition of a percent inhibition of greater than or equal to about 50%)”.

Which “% inhibition generated from Assay 1” value does the source give for O=C(N[C@H](CN1CCC1)[C@H](O)c1ccc(OC2CC2)c(Cl)c1)C(F)(F)CCc1ccc2cc(F)ccc2c1 [Compound 134, N-((1R,2R)-3-(azetidin-1-yl)-1-(3-chloro-4-cyclopropoxyphenyl)-1-hydroxypropan-2-yl)-2,2-difluoro-4-(6-fluoronaphthalen-2-yl)butanamide] here?
Its value is “A* (the compound had a % inhibition of a percent inhibition of greater than or equal to about 50%)”.

How did the “% inhibition generated from Assay 1” value turn out when O=C(N[C@H](CN1CCCC1)[C@H](O)c1ccc(OC2CC2)c(Cl)c1)C(=O)c1cccc(N2CCCCC2)c1 [Compound 238, N-((2R)-1-(3-chloro-4-cyclopropoxyphenyl)-1-hydroxy-3-(pyrrolidin-1-yl)propan-2-yl)-2-oxo-2-(3-(piperidin-1-yl)phenyl)acetamide] was run?
The value was “B* (the compound had a % inhibition of greater than or equal to about 3% but less than about 50%)”.

With O=C(N[C@H](CN1CCCC1)[C@H](O)c1ccc(OC2CC2)c(Cl)c1)C(F)(F)c1ccc2cc(Cl)ccc2c1 [Compound 139, N-((1R,2R)-1-(3-chloro-4-cyclopropoxyphenyl)-1-hydroxy-3-(pyrrolidin-1-yl)propan-2-yl)-2-(6-chloronaphthalen-2-yl)-2,2-difluoroacetamide] as the molecule, how does the “% inhibition generated from Assay 1” value read?
Its value is “A* (the compound had a % inhibition of a percent inhibition of greater than or equal to about 50%)”.

Same assay, conditions: Table 2; data without asterisk; read-out: IC50 (nM) generated from Assay 1

How did the IC50 turn out when O=C(N[C@H](CN1CCCC1)[C@H](O)c1cc(F)c2c(c1)OCCO2)C(=O)c1ccc(N2CCOCC2)cc1 [Example 325, N-((1R,2R)-1-(8-fluoro-2,3-dihydrobenzo[b][1,4]dioxin-6-yl)-1-hydroxy-3-(pyrrolidin-1-yl)propan-2-yl)-2-(4-morpholinophenyl)-2-oxoacetamide] was run?
The IC50 was < 50 nM.

With O=C(N[C@H](CN1CCCC1)[C@H](O)c1ccc2c(c1)OCCO2)C(F)(F)c1ccc2cc(Cl)ccc2c1 [Compound 132, 2-(6-chloronaphthalen-2-yl)-N-((1R,2R)-1-(2,3-dihydrobenzo[b][1,4]dioxin-6-yl)-1-hydroxy-3-(pyrrolidin-1-yl)propan-2-yl)-2,2-difluoroacetamide] as the molecule, how does the IC50 read?
The IC50 was < 50 nM.

O=C(N[C@H](CN1CCCC1)[C@H](O)c1cc(F)c2c(c1)OCCO2)C(=O)c1ccc(-c2ccc(F)cn2)cc1 [Compound 176, N-((1R,2R)-1-(8-fluoro-2,3-dihydrobenzo[b][1,4]dioxin-6-yl)-1-hydroxy-3-(pyrrolidin-1-yl)propan-2-yl)-2-(4-(5-fluoropyridin-2-yl)phenyl)-2-oxoacetamide] was tested. Which IC50 did it give?
Its IC50 is < 50 nM.

With O=C(N[C@H](CN1CCCC1)[C@H](O)c1ccc(OC2COC2)c(Cl)c1)C(F)(F)c1cc2cc(Cl)ccc2o1 [Compound 130, N-((1R,2R)-1-(3-chloro-4-(oxetan-3-yloxy)phenyl)-1-hydroxy-3-(pyrrolidin-1-yl)propan-2-yl)-2-(5-chlorobenzofuran-2-yl)-2,2-difluoroacetamide] as the molecule, how does the IC50 read?
Its IC50 is < 50 nM.

O=C(N[C@H](CN1CCCC1)[C@H](O)c1ccc(OC2CC2)c(Cl)c1)C(=O)c1ccc(-c2ccc3ncsc3c2)cc1 [Example 297, 2-(4-(benzo[d]thiazol-6-yl)phenyl)-N-((1R,2R)-1-(3-chloro-4-cyclopropoxyphenyl)-1-hydroxy-3-(pyrrolidin-1-yl)propan-2-yl)-2-oxoacetamide] was tested. Which IC50 did it give?
The IC50 was < 50 nM.

For CC(C)Oc1ccc([C@@H](O)[C@@H](CN2CCCC2)NC(=O)C(F)(F)c2cc3cc(Cl)ccc3o2)cc1Cl [Compound 94, N-((1R,2R)-1-(3-chloro-4-isopropoxyphenyl)-1-hydroxy-3-(pyrrolidin-1-yl)propan-2-yl)-2-(5-chlorobenzofuran-2-yl)-2,2-difluoroacetamide], which IC50 is on record?
Its IC50 is < 50 nM.

How did the IC50 turn out when Cc1cc(C(=O)C(=O)N[C@H](CN2CCCC2)[C@H](O)c2ccc(OC3CC3)c(Cl)c2)ccc1-c1ccc(F)cc1 [Example 298, N-((1R,2R)-1-(3-chloro-4-cyclopropoxyphenyl)-1-hydroxy-3-(pyrrolidin-1-yl)propan-2-yl)-2-(4′-fluoro-2-methyl-[1,1′-biphenyl]-4-yl)-2-oxoacetamide] was run?
Its IC50 is < 50 nM.

With [2H]C([2H])(C(=O)N[C@H](CN1CCCC1)[C@H](O)c1ccc(OC2CC2)c(Cl)c1)c1ccc(-c2ccc(F)cc2)cc1 [Example 303, N-[(1R,2R)-2-(3-chloro-4-cyclopropoxyphenyl)-2-hydroxy-1-(pyrrolidinylmethyl)ethyl]-2-[4-(4-fluorophenyl)phenyl]acetamide] as the molecule, how does the IC50 read?
Its IC50 is < 50 nM.

Which IC50 does the source give for O=C(N[C@H](CN1CCCC1)[C@H](O)c1ccc(OC2CC2)c(Cl)c1)C(=O)c1ccc2nn(Cc3ccc(F)cc3)cc2c1 [Example 304, N-((1R,2R)-1-(3-chloro-4-cyclopropoxyphenyl)-1-hydroxy-3-(pyrrolidin-1-yl)propan-2-yl)-2-(2-(4-fluorobenzyl)-2H-indazol-5-yl)-2-oxoacetamide] here?
The IC50 was < 50 nM.

Which IC50 does the source give for Cn1ncc2cc(-c3ccc(C(=O)C(=O)N[C@H](CN4CCCC4)[C@H](O)c4ccc5c(c4)OCCO5)cc3)ccc21 [Compound 207, N-((1R,2R)-1-(2,3-dihydrobenzo[b][1,4]dioxin-6-yl)-1-hydroxy-3-(pyrrolidin-1-yl)propan-2-yl)-2-(4-(1-methyl-1H-indazol-5-yl)phenyl)-2-oxoacetamide] here?
The IC50 was < 50 nM.

For Cn1ncc2ccc(-c3ccc(C(=O)C(=O)N[C@H](CN4CCCC4)[C@H](O)c4ccc(OC5CC5)c(Cl)c4)cc3)cc21 [Compound 243, N-((1R,2R)-1-(3-chloro-4-cyclopropoxyphenyl)-1-hydroxy-3-(pyrrolidin-1-yl)propan-2-yl)-2-(4-(1-methyl-1H-indazol-6-yl)phenyl)-2-oxoacetamide], which IC50 is on record?
Its IC50 is < 50 nM.

O=C(N[C@H](CN1CCC1)[C@H](O)c1cc(F)c2c(c1)OCCO2)C(=NO)c1cc2cc(Cl)ccc2o1 [Compound 98, N-((1R,2R)-3-(azetidin-1-yl)-1-(8-fluoro-2,3-dihydrobenzo[b][1,4]dioxin-6-yl)-1-hydroxypropan-2-yl)-2-(5-chlorobenzofuran-2-yl)-2-(hydroxyimino)acetamide] was tested. Which IC50 did it give?
The IC50 was < 50 nM.

For Cc1nn(C(C)C)c2ccc(-c3ccc(C(=O)C(=O)N[C@H](CN4CCCC4)[C@H](O)c4ccc(OC5CC5)c(Cl)c4)cc3)cc12 [Example 314, N-((1R,2R)-1-(3-chloro-4-cyclopropoxyphenyl)-1-hydroxy-3-(pyrrolidin-1-yl)propan-2-yl)-2-(4-(1-isopropyl-3-methyl-1H-indazol-5-yl)phenyl)-2-oxoacetamide], which IC50 is on record?
The IC50 was < 50 nM.

With O=C(N[C@H](CN1CCCC1)[C@H](O)c1cc(F)c2c(c1)OCCO2)C(=O)c1ccc(F)cc1 [Compound 379, N-((1R,2R)-1-(8-fluoro-2,3-dihydrobenzo[b][1,4]dioxin-6-yl)-1-hydroxy-3-(pyrrolidin-1-yl)propan-2-yl)-2-(4-fluorophenyl)-2-oxoacetamide] as the molecule, how does the IC50 read?
The IC50 was < 50 nM.

For O=C(N[C@H](CN1CCCC1)[C@H](O)c1ccc(OC2CC2)c(F)c1)C(=O)c1ccc(-c2ccc(Cl)s2)cc1 [Example 359, 2-(4-(5-chlorothiophen-2-yl)phenyl)-N-((1R,2R)-1-(4-cyclopropoxy-3-fluorophenyl)-1-hydroxy-3-(pyrrolidin-1-yl)propan-2-yl)-2-oxoacetamide], which IC50 is on record?
Its IC50 is < 50 nM.

O=C(N[C@H](CN1CCCC1)[C@H](O)c1ccc(OC2CC2)c(Cl)c1)C(F)(F)CCc1ccc2cc(Cl)ccc2c1 [Example 328, N-((1R,2R)-1-(3-chloro-4-cyclopropoxyphenyl)-1-hydroxy-3-(pyrrolidin-1-yl)propan-2-yl)-4-(6-chloronaphthalen-2-yl)-2,2-difluorobutanamide] was tested. Which IC50 did it give?
Its IC50 is < 50 nM.

Which IC50 does the source give for O=C(N[C@H](CN1CCCC1)[C@H](O)c1ccc(OC2CC2)c(F)c1)C(F)(F)CCc1ccc2ccccc2c1 [Compound 125, N-((1R,2R)-1-(4-cyclopropoxy-3-fluorophenyl)-1-hydroxy-3-(pyrrolidin-1-yl)propan-2-yl)-2,2-difluoro-4-(naphthalen-2-yl)butanamide] here?
Its IC50 is < 50 nM.

Same assay, conditions: Table 3; MDCK cell lysate; read-out: IC50 (nM) generated from Assay 1

C#Cc1ccc(C(=O)C(=O)N[C@H](CN2CCCC2)[C@H](O)c2ccc(OC3CC3)cc2)cc1 [Example 401, N-((1R,2R)-1-(4-cyclopropoxyphenyl)-1-hydroxy-3-(pyrrolidin-1-yl)propan-2-yl)-2-(4-ethynylphenyl)-2-oxoacetamide] was tested. Which IC50 did it give?
Its IC50 is 50 to 5000 nM.
